Experimental data taken from PubChem BioAssay (NCI).
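Where inhibition never reached the appropriate level, the endpoint shown equals the highest concentration tested. Otherwise, values were interpolated linearly from a five-concentration, 48-hour dose response in 96-well plates. Here, GI50 denotes the concentration required for 50% inhibition of growth. At the TGI there is no net growth.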

How the values were obtained:
P388 leukemia = assay: NCI tumour cell line growth inhibition, 48 h
P388/ADR leukemia = assay: NCI tumour cell line growth inhibition, 48 h

O=C(O)C1(C(=O)O)CCC1.[NH2-].[NH2-].[Pt+2]
GI50 (P388 leukemia): 15.4 µM
TGI (P388 leukemia): 169 µM
GI50 (P388/ADR leukemia): 33.3 µM
TGI (P388/ADR leukemia): 218 µM
